Results on 23 molecules are retold here after PMC10587743 (RSC Advances, 2023).

By IC50 is commonly meant the concentration that gives 50% inhibition.

For test [1], the system named is A549 lung cancer cell lines. Conditions: cited from earlier work.
Test [2] relates to HePG2 liver cancer cell line. In words: MTT cytotoxicity assay, HePG2. The test is classed as cell-based. The following applies: Homo sapiens, HepG2, read-out: In vitro cytotoxicity IC50, HePG2. (Tetrazolium dyes change colour on reduction, which living cells bring about.)
In test [3] the test system is MCF-7 breast cancer cell line. The test can be described thus: MTT cytotoxicity assay, MCF-7. The following applies: Homo sapiens, MCF7, read-out: In vitro cytotoxicity IC50, MCF-7.
Test [4] has as its system HCT-116 colon cancer cell line. In words: MTT cytotoxicity assay, HCT-116. Conditions: Homo sapiens, HCT-116, read-out: In vitro cytotoxicity IC50, HCT-116.
The subject of test [5] is HePG-2, HCT-116, and MCF-7 cell lines. The test can be described thus: MTT cytotoxicity, range over the three cell lines. In kind it is cell-based. The following applies: 144 h, read-out: IC50 values ranging over HePG-2, HCT-116, and MCF-7 cell lines.
In another test the target is EGFR TK (Homo sapiens, UniProt P00533). The test can be described thus: EGFR kinase inhibition assay. In kind it is biochemical.
For a further test, the system named is P-gp in HepG-2/ADR cells. The test can be described thus: Quantitative real-time PCR for P-glycoprotein. In kind it is cell-based, human. The following applies: 72 h, control HepG2 = 1. On the technique in general: In qPCR the cycle at which signal appears reflects the starting amount.
The target of another test is CDK-2 (Homo sapiens, UniProt P24941). The test can be described thus: CDK-2 kinase inhibition assay. The test is classed as biochemical.
The subject of test [6] is HCT-116 cells. The test can be described thus: Cell cycle analysis by flow cytometry. The test is classed as cell-based. The following applies: HCT-116, 6o at IC50 (5.84 μM); control 42.94%.
The subject of test [7] is HCT-116 cells. The test can be described thus: Annexin V-FITC/PI apoptosis assay. The test is classed as cell-based. The following applies: HCT-116, 6o at IC50.
The subject of the next test is leukemia L1210 cells. Conditions: read-out: IC50 against leukemia L1210 cells; cited from earlier work.
Test [8] deals with breast cancer cell line (MCF-7). Conditions: read-out: IC50 on breast cancer cell line (MCF-7); cited from earlier work.

Read-outs that look alike come from different tables or passages of the source.

EGFR TK, sequence (P00533 25-1210): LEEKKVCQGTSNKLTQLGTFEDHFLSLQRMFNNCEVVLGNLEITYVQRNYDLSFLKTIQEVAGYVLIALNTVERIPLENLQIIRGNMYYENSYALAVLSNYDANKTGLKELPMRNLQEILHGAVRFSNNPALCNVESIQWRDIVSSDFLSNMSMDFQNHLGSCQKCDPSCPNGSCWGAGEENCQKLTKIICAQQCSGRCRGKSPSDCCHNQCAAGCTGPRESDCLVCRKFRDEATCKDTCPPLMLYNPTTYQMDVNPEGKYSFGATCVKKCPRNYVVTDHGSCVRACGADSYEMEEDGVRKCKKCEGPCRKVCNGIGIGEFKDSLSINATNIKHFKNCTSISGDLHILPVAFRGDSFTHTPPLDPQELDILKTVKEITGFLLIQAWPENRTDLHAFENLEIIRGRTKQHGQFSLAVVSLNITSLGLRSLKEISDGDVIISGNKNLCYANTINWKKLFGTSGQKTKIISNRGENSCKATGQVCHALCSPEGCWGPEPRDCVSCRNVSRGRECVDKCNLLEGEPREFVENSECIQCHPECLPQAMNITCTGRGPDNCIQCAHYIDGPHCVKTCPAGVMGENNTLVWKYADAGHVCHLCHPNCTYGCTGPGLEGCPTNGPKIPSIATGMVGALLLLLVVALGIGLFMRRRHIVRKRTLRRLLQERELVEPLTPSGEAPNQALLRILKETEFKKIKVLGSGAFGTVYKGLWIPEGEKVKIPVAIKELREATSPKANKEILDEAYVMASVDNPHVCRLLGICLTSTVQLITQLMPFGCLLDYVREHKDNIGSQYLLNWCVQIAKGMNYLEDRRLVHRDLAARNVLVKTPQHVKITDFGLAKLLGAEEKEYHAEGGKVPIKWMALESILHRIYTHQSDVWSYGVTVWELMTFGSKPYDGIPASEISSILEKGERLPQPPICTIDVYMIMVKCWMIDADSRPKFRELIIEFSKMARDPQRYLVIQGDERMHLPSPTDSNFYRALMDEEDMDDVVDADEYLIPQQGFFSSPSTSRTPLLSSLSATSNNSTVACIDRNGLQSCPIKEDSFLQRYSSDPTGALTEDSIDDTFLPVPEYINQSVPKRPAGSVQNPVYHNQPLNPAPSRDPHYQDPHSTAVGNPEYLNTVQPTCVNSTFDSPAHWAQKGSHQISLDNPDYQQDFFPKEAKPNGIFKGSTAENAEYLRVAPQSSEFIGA

Take `O=c1[nH]cc(F)c(=O)[nH]1` [5-fluorouracil]: in test [1] (read-out: IC50 against A549 lung cancer cell lines), the IC50 is less than 5 µM.

Consider `N#Cc1c(N2C(=O)c3ccc(F)cc3C2=O)c(C(=O)Nc2ccccc2)n2c1CCC2` [Compound 6a, 7-Cyano-6-(5-fluoro-1,3-dioxoisoindolin-2-yl)-N-phenyl-2,3-dihydro-1H-pyrrolizine-5-carboxamide], for which the IC50 in test [2] was 85.1 ± 4.1 µM; in test [3], 93.5 ± 4.7 µM; in [4], greater than 100 µM.

For `Cc1ccc(NC(=O)c2c(N3C(=O)c4ccc(F)cc4C3=O)c(C#N)c3n2CCC3)cc1` [Compound 6b, 7-Cyano-6-(5-fluoro-1,3-dioxoisoindolin-2-yl)-N-(p-tolyl)-2,3-dihydro-1H-pyrrolizine-5-carboxamide], the IC50 in [2] was determined as 55.4 ± 3.2 µM; in [3], 58.1 ± 3.3 µM; in [4], 66.3 ± 3.1 µM.

As to `N#Cc1c(N2C(=O)c3ccccc3C2=O)c(C(=O)Nc2ccc(F)cc2)n2c1CCC2` [Compound 6c, 7-Cyano-6-(1,3-dioxoisoindolin-2-yl)-N-(4-fluorophenyl)-2,3-dihydro-1H-pyrrolizine-5-carboxamide], the values for the IC50 in [2], in test [3] and in [4] were 49.1 ± 2.9 µM, 54.6 ± 3.1 µM and 47.9 ± 2.6 µM, respectively.

For `N#Cc1c(N2C(=O)c3ccc(F)cc3C2=O)c(C(=O)Nc2ccc(F)cc2)n2c1CCC2` [Compound 6d, 7-Cyano-6-(5-fluoro-1,3-dioxoisoindolin-2-yl)-N-(4-fluorophenyl)-2,3-dihydro-1H-pyrrolizine-5-carboxamide], the IC50 was 7.97 ± 0.5 µM in test [2]; 6.02 to 13.9 µM in test [5]; 13.9 ± 0.9 µM in [3]; 9.49 ± 0.6 µM in [4]; 0.362 ± 0.008 µM at EGFR TK. Besides, the “P-gp RT-PCR fold change” value in the test on P-gp in HepG-2/ADR cells was determined as 0.4097 fold.

On to `COc1ccc(NC(=O)c2c(N3C(=O)c4ccccc4C3=O)c(C#N)c3n2CCC3)cc1` [Compound 6e, 7-Cyano-6-(1,3-dioxoisoindolin-2-yl)-N-(4-methoxyphenyl)-2,3-dihydro-1H-pyrrolizine-5-carboxamide], for which the IC50 in [2] came out at 45.4 ± 2.5 µM; in [3], 42.7 ± 2.5 µM; in test [4], 38.1 ± 2.4 µM.

Consider `COc1ccc(NC(=O)c2c(N3C(=O)c4ccc(F)cc4C3=O)c(C#N)c3n2CCC3)cc1` [Compound 6f, 7-Cyano-6-(5-fluoro-1,3-dioxoisoindolin-2-yl)-N-(4-methoxyphenyl)-2,3-dihydro-1H-pyrrolizine-5-carboxamide], for which the IC50 in test [2] is 88.3 ± 4.3 µM; in test [3], greater than 100 µM; in test [4], greater than 100 µM.

As to `N#Cc1c(N2C(=O)c3ccc(F)cc3C2=O)c(C(=O)Nc2ccc(Cl)cc2)n2c1CCC2` [Compound 6g, N-(4-Chlorophenyl)-7-cyano-6-(5-fluoro-1,3-dioxoisoindolin-2-yl)-2,3-dihydro-1H-pyrrolizine-5-carboxamide], the IC50 came to 52 ± 2.8 µM in test [2], 69.4 ± 3.7 µM in test [3] and 60.2 ± 3.3 µM in test [4].

As to `N#Cc1c(N2C(=O)c3ccccc3C2=O)c(C(=O)Nc2ccc(Br)cc2)n2c1CCC2` [Compound 6h, N-(4-Bromophenyl)-7-cyano-6-(1,3-dioxoisoindolin-2-yl)-2,3-dihydro-1H-pyrrolizine-5-carboxamide], the IC50 was 91.4 ± 4.8 µM in test [2], greater than 100 µM in [3] and greater than 100 µM in test [4].

For `N#Cc1c(N2C(=O)c3ccc(F)cc3C2=O)c(C(=O)Nc2ccc(Br)cc2)n2c1CCC2` [Compound 6i, N-(4-Bromophenyl)-7-cyano-6-(5-fluoro-1,3-dioxoisoindolin-2-yl)-2,3-dihydro-1H-pyrrolizine-5-carboxamide], the IC50 in test [2] is 20.4 ± 1.5 µM; in [3], 25.3 ± 2 µM; in test [4], 14.3 ± 1.1 µM.

Turning to `N#Cc1c(N2C(=O)c3ccccc3C2=O)c(C(=O)Nc2ccccc2)n2c1CCCC2` [Compound 6j, 1-Cyano-2-(1,3-dioxoisoindolin-2-yl)-N-phenyl-5,6,7,8-tetrahydroindolizine-3-carboxamide], the IC50 in test [2] was found to be 34.1 ± 1.9 µM; in test [3], 31.3 ± 2.3 µM; in test [4] it was 22.1 ± 1.6 µM.

On to `N#Cc1c(N2C(=O)c3ccc(F)cc3C2=O)c(C(=O)Nc2ccccc2)n2c1CCCC2` [Compound 6k, 1-Cyano-2-(5-fluoro-1,3-dioxoisoindolin-2-yl)-N-phenyl-5,6,7,8-tetrahydroindolizine-3-carboxamide], for which the IC50 was 78.2 ± 3.8 µM in [2], 80.6 ± 4.1 µM in [3] and 83.7 ± 4 µM in test [4].

Regarding `Cc1ccc(NC(=O)c2c(N3C(=O)c4ccccc4C3=O)c(C#N)c3n2CCCC3)cc1` [Compound 6l, 1-Cyano-2-(1,3-dioxoisoindolin-2-yl)-N-(p-tolyl)-5,6,7,8-tetrahydroindolizine-3-carboxamide], the IC50 in [2] stood at 61.6 ± 3.5 µM; in [3], 63.2 ± 3.5 µM; in [4], 57.5 ± 3.1 µM.

For the molecule `Cc1ccc(NC(=O)c2c(N3C(=O)c4ccc(F)cc4C3=O)c(C#N)c3n2CCCC3)cc1` [Compound 6m, 1-Cyano-2-(5-fluoro-1,3-dioxoisoindolin-2-yl)-N-(p-tolyl)-5,6,7,8-tetrahydroindolizine-3-carboxamide], the IC50 in [2] was 12 ± 0.8 µM; against CDK-2, 0.402 ± 0.086 µM; in test [3], 19.9 ± 1.4 µM; in test [4], 28.4 ± 1.9 µM; against EGFR TK, 0.13 ± 0.011 µM. In addition, the “P-gp RT-PCR fold change” value with P-gp in HepG-2/ADR cells was 0.6754 fold.

Consider `N#Cc1c(N2C(=O)c3ccccc3C2=O)c(C(=O)Nc2ccc(F)cc2)n2c1CCCC2` [Compound 6n, 1-Cyano-2-(1,3-dioxoisoindolin-2-yl)-N-(4-fluorophenyl)-5,6,7,8-tetrahydroindolizine-3-carboxamide], for which the IC50 in test [2] came out at 65.4 ± 3.7 µM; in test [3], 75.8 ± 3.9 µM; in test [4], 71.3 ± 3.5 µM.

For `N#Cc1c(N2C(=O)c3ccc(F)cc3C2=O)c(C(=O)Nc2ccc(F)cc2)n2c1CCCC2` [Compound 6o, 1-Cyano-2-(5-fluoro-1,3-dioxoisoindolin-2-yl)-N-(4-fluorophenyl)-5,6,7,8-tetrahydroindolizine-3-carboxamide], the “Cells in G1 phase” value with HCT-116 cells [6] was determined as 48.75%. The IC50 in test [2] is 6.02 ± 0.3 µM; in test [5], 6.02 to 13.9 µM; against CDK-2, 0.118 ± 0.016 µM; in [3], 8.89 ± 0.5 µM; in test [4] it was 5.84 ± 0.2 µM; against EGFR TK it was 0.062 ± 0.003 µM. Further, the Late cellular apoptosis in the test with HCT-116 cells [7] (DMSO control 0.16%, upper right quadrant) came to 26.51%. Also, the Early cellular apoptosis in the test on HCT-116 cells [7] (DMSO control 0.52%, lower right quadrant) is given as 15.16%. Also, the Total cellular apoptosis with HCT-116 cells [7] (DMSO control 2.61%) was determined as 49.16%. Moreover, the “P-gp RT-PCR fold change” value in the test with P-gp in HepG-2/ADR cells came out at 0.2732 fold.

In the case of `COc1ccc(NC(=O)c2c(N3C(=O)c4ccccc4C3=O)c(C#N)c3n2CCCC3)cc1` [Compound 6p, 1-Cyano-2-(1,3-dioxoisoindolin-2-yl)-N-(4-methoxyphenyl)-5,6,7,8-tetrahydroindolizine-3-carboxamide], the figures for the half-maximal inhibitory concentration (IC50) in [2], in test [3] and in test [4] were 73.3 ± 3.9 µM, 86.9 ± 4.3 µM and 79.6 ± 3.7 µM, respectively.

With `COc1ccc(NC(=O)c2c(N3C(=O)c4ccc(F)cc4C3=O)c(C#N)c3n2CCCC3)cc1` [Compound 6q, 1-Cyano-2-(5-fluoro-1,3-dioxoisoindolin-2-yl)-N-(4-methoxyphenyl)-5,6,7,8-tetrahydroindolizine-3-carboxamide], the IC50 was 41.2 ± 2.3 µM in test [2], 37.4 ± 2.6 µM in test [3] and 32.2 ± 2.2 µM in [4].

As to `COc1cccc2c1C(=O)c1c(O)c3c(c(O)c1C2=O)C[C@@](O)(C(=O)CO)C[C@@H]3O[C@H]1C[C@H](N)[C@H](O)[C@H](C)O1` [DOX, Doxorubicin, reference compound], the IC50 in [2] amounted to 4.5 ± 0.2 µM.

`O=C(c1ccccc1)c1ccc2n1CCC2C(=O)O` (centres unmarked) [Ketorolac]: in test [1] (read-out: IC50 against lung cancer cell lines A549), the IC50 was roughly 13 µM.

In the case of `COc1ccc(-c2csc3c2-n2cccc2C3=O)cc1O` [MR22388], the IC50 in the test on leukemia L1210 cells was 0.015 µM.

With `CC/C(=C(\c1ccccc1)c1ccc(OCCN(C)C)cc1)c1ccccc1` [Tamoxifen, reference compound], in the test on P-gp in HepG-2/ADR cells, the “P-gp RT-PCR fold change” value came out at 0.2176 fold.

For `CC1(C)Cc2c(-c3ccccc3)c(-c3ccc(Cl)cc3)c(CC(=O)O)n2C1` [licofelone], the IC50 in [8] was 5.5 µM.
